The test has as its system tumor cell line Dunning R3327-G. Nature of the test: Tumor reduction in Copenhagen rats implanted with tumor cell line Dunning R3327-G (tumor weight at sacrifice). The format is in vivo. The conditions noted are these: three months following the tumor line implant. As to the method: Tumor cell line Dunning R3327-G was implanted into 9-12 weeks old Copenhagen rats (with approximately 100 g of body weight each), which were subjected to different treatments with 2×10^6 cell density per animal in implant medium (RPMI 1640, serum-free in 0.5 ml), on the laxed area of the flanks. One hundred percent attachment efficiency was accomplished in the animals after 90 days.
Eight groups of ten animals each one were formed for the experiment, with Copenhagen rats as described before. […]
DES treatment was made on and off, three times a week at a rate of 1 mg/kg/day, as long as the experiment lasted; and it started once the cells were inoculated. […] (1) The expected effect (Etheoretical) in the case of double combination formulations can be calculated in case either effect is not mutually excluding (Caridad W., Guerra Bustillo, Ernesto Menendez Acuna, Rolando Barrera Morena, Esteban Egana Morales. “Estadistica”, Editorial Pueblo y Educacion, 1989), according to: Etheoretical=ET1+ET2−(ET1*ET2). […]

As to `CC/C(=C(/CC)c1ccc(O)cc1)c1ccc(O)cc1` [DES, dietilestilbestrol], the “Treatment effect. Etreatment=1-(Ptreatment/Pplacebo)” value (relative to placebo mean tumor weight) came to 0.597. The “Tumor weight (g) (Mean of ten animals)” value (tumor dried and weighed) was found to be 12.66 g.

The values are drawn from patent US20060193853A1, “Combinations of growth-and hormone-regulating factors for the treatment of neoplasia” (priority 2002, published 2006).
